Source: PubChem BioAssay AID540323 (Johns Hopkins Ion Channel Center, 2011)
Calls of active or inactive are those of the source.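 How the source made its calls: active means peak hERG channel inhibition above 30% at some tested dose, together with a fitted dose response curve; inactive means no hERG inhibition at any dose, or no curve.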

The compounds below were run against Voltage-gated inwardly rectifying potassium channel KCNH2 (Homo sapiens) (UniProt Q12809) (assay: KCNH2 potassium channel blockade – FluxOR Tl flux, hERG cells, CRC 2, selectivity assay for KCNK9 inhibitor project, SAR follow-up (AID 540323)). Settings: hERG-expressing cells, FluxOR thallium flux fluorescence; at 30 µM (top of the series); test wells contain dofetilide at its IC70.
Chain of Voltage-gated inwardly rectifying potassium channel KCNH2 (Homo sapiens) (Q12809 whole entry, looked up): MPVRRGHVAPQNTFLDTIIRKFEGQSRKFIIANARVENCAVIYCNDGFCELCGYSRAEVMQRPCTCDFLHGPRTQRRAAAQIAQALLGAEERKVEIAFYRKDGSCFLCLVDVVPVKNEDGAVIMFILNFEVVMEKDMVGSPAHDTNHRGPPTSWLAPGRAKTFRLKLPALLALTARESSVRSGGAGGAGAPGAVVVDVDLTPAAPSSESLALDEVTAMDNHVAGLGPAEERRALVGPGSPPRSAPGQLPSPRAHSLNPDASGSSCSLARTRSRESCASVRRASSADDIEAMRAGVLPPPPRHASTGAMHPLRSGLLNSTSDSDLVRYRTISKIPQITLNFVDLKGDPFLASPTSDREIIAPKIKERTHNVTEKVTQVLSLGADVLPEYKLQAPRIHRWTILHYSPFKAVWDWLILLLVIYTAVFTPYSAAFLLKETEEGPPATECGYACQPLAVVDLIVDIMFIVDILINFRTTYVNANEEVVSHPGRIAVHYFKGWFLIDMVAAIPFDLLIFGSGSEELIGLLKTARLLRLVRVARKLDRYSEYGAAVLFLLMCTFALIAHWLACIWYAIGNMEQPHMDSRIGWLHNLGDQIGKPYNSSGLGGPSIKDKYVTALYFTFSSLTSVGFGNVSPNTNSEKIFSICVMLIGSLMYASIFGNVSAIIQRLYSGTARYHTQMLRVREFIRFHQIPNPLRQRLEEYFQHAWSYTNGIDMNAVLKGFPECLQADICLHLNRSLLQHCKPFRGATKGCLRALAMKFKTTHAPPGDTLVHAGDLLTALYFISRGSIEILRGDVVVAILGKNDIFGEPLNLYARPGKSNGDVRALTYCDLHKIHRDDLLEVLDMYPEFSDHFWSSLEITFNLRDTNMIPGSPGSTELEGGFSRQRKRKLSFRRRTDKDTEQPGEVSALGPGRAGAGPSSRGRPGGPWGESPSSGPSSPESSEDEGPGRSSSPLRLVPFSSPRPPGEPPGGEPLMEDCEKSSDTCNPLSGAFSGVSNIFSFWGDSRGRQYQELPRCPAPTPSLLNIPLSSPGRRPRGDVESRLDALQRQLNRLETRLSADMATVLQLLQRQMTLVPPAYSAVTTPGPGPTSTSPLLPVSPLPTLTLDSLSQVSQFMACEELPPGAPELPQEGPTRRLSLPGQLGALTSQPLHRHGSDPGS

SMILES	fluorescence ratio, lower = inhibition
CC(C)(C)c1ccc(C(=O)Nc2cccc(NC(=O)c3ccccc3)c2)cc1	inactive
O=C(Nc1cccc(NC(=O)c2ccc(F)cc2)c1)c1ccccc1	inactive
CC(C1CC2CCC1C2)n1c(C2CCOC2)n[nH]c1=S (centres undefined)	inactive
CCOc1ccccc1NC(=O)c1cccc(NC(=O)C2CCCO2)c1 (centres undefined)	inactive
CCOc1ccccc1NC(=O)c1cccc(NC(=O)CC2CCCC2)c1	inactive
CC(C1CC2CCC1C2)n1c(-c2ccoc2)n[nH]c1=S (centres undefined)	inactive
CCOc1ccccc1NC(=O)c1cccc(NC(=O)C2CCCCC2)c1	inactive
CCOc1ccccc1C(=O)Nc1cccc(NC(=O)c2ccccc2OC)c1	inactive

Same assay, conditions: hERG-expressing cells, FluxOR thallium flux fluorescence; test wells contain dofetilide at its IC70

SMILES	IC50 [µM]
Cc1cccc(C(=O)Nc2cccc(NC(=O)c3ccccc3)c2)c1	8.08
